Laboratory results as given in US7396837B2, “Antitumoral analogs of lamellarins” (Pharma Mar, S.A.U., priority 2002, dated 2008).

What was measured:
Type in all cases: cell-based
IGROV-ET = test: SRB colorimetric cell growth inhibition assay, IGROV-ET (ET-743 resistant); settings: Homo sapiens, IGROV-ET; for GI50: GI=growth inhibition, read-out: GI50 IGROV-ET; for CC50: LC=cell killing (cytotoxic effect), read-out: LC50 IGROV-ET; for IC (TGI): TGI=total growth inhibition (cytostatic effect), read-out: TGI IGROV-ET
In short: (§1)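 In this cytotoxicity screen, compound stays in contact with the cultured human cancer cells without washout; sulforhodamine B binding gives the measure of cell number, and endpoints separate growth inhibition from cytostasis (TGI) and killing (LC).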

H-MEC-1 = test: SRB colorimetric cell growth inhibition assay, H-MEC-1; settings: Homo sapiens, HMEC-1, H-MEC-1; for GI50: GI=growth inhibition; for IC (TGI): TGI=total growth inhibition (cytostatic effect), read-out: TGI H-MEC-1
In short: (§2)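 Growth and viability quantified by sulforhodamine B staining in 96-well microplates. Triplicate wells give mean ± SD; derived endpoints are GI, TGI (cytostatic) and LC (cytotoxic).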

[1] = as above; settings: human, H-MEC-1 cells, H-MEC-1; LC=cell killing (cytotoxic effect); read-out: LC50 H-MEC-1
In short: as §2

LoVo = test: SRB colorimetric cell growth inhibition assay, LoVo; settings: Homo sapiens, LoVo; for GI50: GI=growth inhibition, read-out: GI50 LOVO; for CC50: cell killing (cytotoxic effect), read-out: LC50 LOVO; for IC (TGI): total growth inhibition (cytostatic effect), read-out: TGI LOVO
In short: as §1

PANC-1 = test: SRB colorimetric cell growth inhibition assay, PANC-1; settings: Homo sapiens, PANC-1, PANC-1; for GI50: GI=growth inhibition, read-out: GI50 PANC-1; for CC50: cell killing (cytotoxic effect), read-out: LC50 PANC-1; for IC (TGI): total growth inhibition (cytostatic effect), read-out: TGI PANC-1
In short: as §1

HT-29 = test: SRB colorimetric cell growth inhibition assay, HT-29; settings: Homo sapiens, HT-29, HT-29; for GI50: GI=growth inhibition, read-out: GI50 HT-29; for CC50: cell killing (cytotoxic effect), read-out: LC50 HT-29; for IC (TGI): total growth inhibition (cytostatic effect), read-out: TGI HT-29
In short: as §1

SKOV-3 = test: SRB colorimetric cell growth inhibition assay, SKOV-3; settings: Homo sapiens; for GI50: SK-OV-3, SKOV-3, GI=growth inhibition, read-out: GI50 SKOV-3; for CC50 / IC (TGI): SK-OV-3, SKOV-3; for CC50: LC=cell killing (cytotoxic effect), read-out: LC50 SKOV-3; for IC (TGI): TGI=total growth inhibition (cytostatic effect), read-out: TGI SKOV-3
In short: as §2

SK-MEL-28 = test: SRB colorimetric cell growth inhibition assay, SK-MEL-28; settings: Homo sapiens, SK-MEL-28, MEL-28; for GI50: GI=growth inhibition, read-out: GI50 MEL-28; for CC50: LC=cell killing (cytotoxic effect), read-out: LC50 MEL-28; for IC (TGI): TGI=total growth inhibition (cytostatic effect), read-out: TGI MEL-28
In short: as §1

LNCaP = test: SRB colorimetric cell growth inhibition assay, LNCaP; settings: Homo sapiens, LNCaP, LN-caP; for GI50: GI=growth inhibition, read-out: GI50 LN-caP; for CC50: LC=cell killing (cytotoxic effect), read-out: LC50 LN-caP; for IC (TGI): TGI=total growth inhibition (cytostatic effect), read-out: TGI LN-caP
In short: as §1

K-562 = test: SRB colorimetric cell growth inhibition assay, K-562; settings: Homo sapiens, K562, K-562; for GI50: GI=growth inhibition, read-out: GI50 K-562; for CC50: cell killing (cytotoxic effect), read-out: LC50 K-562; for IC (TGI): total growth inhibition (cytostatic effect), read-out: TGI K-562
In short: as §1

SK-BR-3 = test: SRB colorimetric cell growth inhibition assay, SK-BR-3; settings: Homo sapiens, SK-BR-3, SK-BR-3; for GI50: GI=growth inhibition, read-out: GI50 SK-BR-3; for CC50: LC=cell killing (cytotoxic effect), read-out: LC50 SK-BR-3; for IC (TGI): TGI=total growth inhibition (cytostatic effect), read-out: TGI SK-BR-3
In short: as §1

DU-145 = test: SRB colorimetric cell growth inhibition assay, DU-145; settings: Homo sapiens, DU-145, DU-145; for GI50: GI=growth inhibition, read-out: GI50 DU-145; for CC50: LC=cell killing (cytotoxic effect), read-out: LC50 DU-145; for IC (TGI): TGI=total growth inhibition (cytostatic effect), read-out: TGI DU-145
In short: as §1

A-549 = test: SRB colorimetric cell growth inhibition assay, A-549; settings: Homo sapiens, A549, A-549; for GI50: GI=growth inhibition, read-out: GI50 A-549; for CC50: cell killing (cytotoxic effect), read-out: LC50 A-549; for IC (TGI): total growth inhibition (cytostatic effect), read-out: TGI A-549
In short: as §1

IGROV = test: SRB colorimetric cell growth inhibition assay, IGROV; settings: Homo sapiens, IGROV; for GI50: GI=growth inhibition, read-out: GI50 IGROV; for CC50: LC=cell killing (cytotoxic effect), read-out: LC50 IGROV; for IC (TGI): TGI=total growth inhibition (cytostatic effect), read-out: TGI IGROV
In short: as §1

LoVo-Dox = test: SRB colorimetric cell growth inhibition assay, LoVo-Dox (MDR); settings: Homo sapiens, LOVO-DOX; for GI50: GI=growth inhibition, read-out: GI50 LOVO-DOX; for CC50: cell killing (cytotoxic effect), read-out: LC50 LOVO-DOX; for IC (TGI): total growth inhibition (cytostatic effect), read-out: TGI LOVO-DOX
In short: as §1

## COc1cc2c(cc1OC)-c1c(-c3ccc(OC(=O)CCc4ccccc4)c(OC)c3)c3c4cc(OC)c(OC(=O)CCc5ccccc5)cc4oc(=O)c3n1CC2 [Compound 93]
IGROV-ET
  GI50: 11.7 µM
  CC50: 12.8 µM
  IC (TGI): 12.8 µM
H-MEC-1
  GI50: 12.8 µM
  IC (TGI): 12.8 µM
[1]
  CC50: 12.8 µM
LoVo
  GI50: 12.8 µM
  CC50: 12.8 µM
  IC (TGI): 12.8 µM
PANC-1
  GI50: 12.8 µM
  CC50: 12.8 µM
  IC (TGI): 12.8 µM
HT-29
  GI50: 12.8 µM
  CC50: 12.8 µM
  IC (TGI): 12.8 µM
SKOV-3
  GI50: 6.26 µM
  CC50: 12.8 µM
  IC (TGI): 12.8 µM
SK-MEL-28
  GI50: 4.57 µM
  CC50: 12.8 µM
  IC (TGI): 12.8 µM
LNCaP
  GI50: 0.408 µM
  CC50: 7.08 µM
  IC (TGI): 1.27 µM
K-562
  GI50: 1.62 µM
  CC50: 4.36 µM
  IC (TGI): 2.65 µM
SK-BR-3
  GI50: 4.95 µM
  CC50: 12.8 µM
  IC (TGI): 12.8 µM
DU-145
  GI50: 12.8 µM
  CC50: 12.8 µM
  IC (TGI): 12.8 µM
A-549
  GI50: 8.64 µM
  CC50: 12.8 µM
  IC (TGI): 12.8 µM
IGROV
  GI50: 3.37 µM
  CC50: 12.8 µM
  IC (TGI): 7.08 µM
LoVo-Dox
  GI50: 3.39 µM
  CC50: 12.8 µM
  IC (TGI): 11.7 µM

## COc1cc(-c2c3n(c4c(=O)oc5cc(OC(=O)c6cc(F)c(F)c(F)c6F)c(OC)cc5c24)CCc2c-3cc(OC)c(OC)c2OC(=O)c2cc(F)c(F)c(F)c2F)ccc1OC(=O)c1cc(F)c(F)c(F)c1F [Compound 99]
IGROV-ET
  GI50: 9.44 µM
  CC50: 9.44 µM
  IC (TGI): 9.44 µM
H-MEC-1
  GI50: 4.06 µM
  IC (TGI): 5.48 µM
[1]
  CC50: 7.42 µM
LoVo
  GI50: 9.44 µM
  CC50: 9.44 µM
  IC (TGI): 9.44 µM
PANC-1
  GI50: 9.44 µM
  CC50: 9.44 µM
  IC (TGI): 9.44 µM
HT-29
  GI50: 9.44 µM
  CC50: 9.44 µM
  IC (TGI): 9.44 µM
SKOV-3
  GI50: 9.44 µM
  CC50: 9.44 µM
  IC (TGI): 9.44 µM
SK-MEL-28
  GI50: 9.44 µM
  CC50: 9.44 µM
  IC (TGI): 9.44 µM
LNCaP
  GI50: 4.46 µM
  CC50: 9.44 µM
  IC (TGI): 8.19 µM
K-562
  GI50: 0.972 µM
  CC50: 2.26 µM
  IC (TGI): 1.48 µM
SK-BR-3
  GI50: 9.44 µM
  CC50: 9.44 µM
  IC (TGI): 9.44 µM
DU-145
  GI50: 9.44 µM
  CC50: 9.44 µM
  IC (TGI): 9.44 µM
A-549
  GI50: 9.44 µM
  CC50: 9.44 µM
  IC (TGI): 9.44 µM
IGROV
  GI50: 3.07 µM
  CC50: 9.44 µM
  IC (TGI): 9.44 µM
LoVo-Dox
  GI50: 9.44 µM
  CC50: 9.44 µM
  IC (TGI): 9.44 µM

## COc1cc(-c2c3c4cc(OC)c(OC(C)C)cc4oc(=O)c3n3ccc4c(OC(C)C)c(OC)c(OC)c(COS(C)(=O)=O)c4c23)ccc1OC(C)C [Compound 101]
IGROV-ET
  GI50: 13.1 µM
  CC50: 13.1 µM
  IC (TGI): 13.1 µM
H-MEC-1
  GI50: 4.66 µM
  IC (TGI): 6.99 µM
[1]
  CC50: 10.5 µM
LoVo
  GI50: 13.1 µM
  CC50: 13.1 µM
  IC (TGI): 13.1 µM
PANC-1
  GI50: 13.1 µM
  CC50: 13.1 µM
  IC (TGI): 13.1 µM
HT-29
  GI50: 13.1 µM
  CC50: 13.1 µM
  IC (TGI): 13.1 µM
SKOV-3
  GI50: 0.791 µM
  CC50: 5.71 µM
  IC (TGI): 2.34 µM
SK-MEL-28
  GI50: 13.1 µM
  CC50: 13.1 µM
  IC (TGI): 13.1 µM
LNCaP
  GI50: 8.25 µM
  CC50: 13.1 µM
  IC (TGI): 13.1 µM
K-562
  GI50: 2.19 µM
  CC50: 5.73 µM
  IC (TGI): 3.53 µM
SK-BR-3
  GI50: 13.1 µM
  CC50: 13.1 µM
  IC (TGI): 13.1 µM
DU-145
  GI50: 13.1 µM
  CC50: 13.1 µM
  IC (TGI): 13.1 µM
A-549
  GI50: 13.1 µM
  CC50: 13.1 µM
  IC (TGI): 13.1 µM
IGROV
  GI50: 11.9 µM
  CC50: 13.1 µM
  IC (TGI): 13.1 µM
LoVo-Dox
  GI50: 13.1 µM
  CC50: 13.1 µM
  IC (TGI): 13.1 µM
